The target in one experiment is Human O-GlcNAcase (His-Tagged hOGA) (Homo sapiens (Human), UniProt O60502). In words: Human O-GlcNAcase enzyme inhibition assay (FL-GlcNAc fluorescence). As to conditions: Enzymatic OGA IC50 (M), His-Tagged hOGA 20 nM, FL-GlcNAc 10 μM, 60 min at room temperature, pH 6.5. The experiment is classed as biochemical.
Human O-GlcNAcase (His-Tagged hOGA), sequence (O60502 whole entry): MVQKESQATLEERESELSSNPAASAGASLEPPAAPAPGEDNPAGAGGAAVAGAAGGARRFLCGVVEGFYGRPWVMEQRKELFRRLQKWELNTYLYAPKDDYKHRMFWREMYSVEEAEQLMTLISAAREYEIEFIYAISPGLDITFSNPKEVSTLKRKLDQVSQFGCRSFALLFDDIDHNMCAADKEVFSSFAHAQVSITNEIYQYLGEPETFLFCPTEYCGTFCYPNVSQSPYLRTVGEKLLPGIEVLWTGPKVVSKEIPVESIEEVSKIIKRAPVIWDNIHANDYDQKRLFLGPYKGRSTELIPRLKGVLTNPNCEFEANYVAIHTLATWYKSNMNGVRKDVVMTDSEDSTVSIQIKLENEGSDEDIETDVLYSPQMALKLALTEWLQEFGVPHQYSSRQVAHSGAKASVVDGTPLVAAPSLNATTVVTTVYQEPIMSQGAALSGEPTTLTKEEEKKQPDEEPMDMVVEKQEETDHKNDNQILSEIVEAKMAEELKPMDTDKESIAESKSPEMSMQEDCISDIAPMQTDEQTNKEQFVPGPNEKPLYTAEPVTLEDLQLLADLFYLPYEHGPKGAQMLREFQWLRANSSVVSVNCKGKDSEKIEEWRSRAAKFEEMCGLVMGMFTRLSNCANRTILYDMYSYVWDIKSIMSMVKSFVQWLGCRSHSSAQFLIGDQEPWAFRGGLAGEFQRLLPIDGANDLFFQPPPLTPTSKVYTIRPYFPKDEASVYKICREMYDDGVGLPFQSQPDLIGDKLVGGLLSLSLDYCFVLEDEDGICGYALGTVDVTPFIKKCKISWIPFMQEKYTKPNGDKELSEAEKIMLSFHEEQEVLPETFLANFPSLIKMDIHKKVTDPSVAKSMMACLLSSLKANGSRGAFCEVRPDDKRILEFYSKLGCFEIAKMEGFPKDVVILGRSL
Description: Then, 20 nM of His-Tagged hOGA and 10 μM of FL-GlcNAc (Fluorescein mono-beta-D-(2-deoxy-2-N-acetyl) glucopyranoside; Marker Gene Technologies Inc, M1485) were added to the 384-well plate for a final volume of 20 μl.
`CC(c1ccc2c(c1)OCC2)N1CCn2nc(-c3ccc(S(C)(=O)=O)cc3)nc2C1` (racemic) [Example 17] came in with a concentration for half-maximal inhibition (IC50) of 1e-06 to 1e-05 M.

Compound `CC(=O)Nc1nc2c(s1)CN(C(C)c1ccc3c(c1)OCO3)CC2` (racemic) [Example 3, N-(5-(1-(benzo[d][1,3]dioxol-5-yl)ethyl)-4,5,6,7-tetrahydrothiazolo[5,4-c]pyridin-2-yl)acetamide] yielded an IC50 of 2e-07 to 1e-06 M.

Staying with this experiment, now noted: His-Tagged hOGA 20 nM, FL-GlcNAc 10 μM, 60 min at room temperature, pH 6.5; read-out: Enzymatic OGA IC50.
In the case of `CC(c1ccc2c(c1)OCC2)N1CCc2nn(-c3ccc(F)cc3)cc2C1` (racemic) [Example 6, 5-(1-(2,3-dihydrobenzofuran-6-yl)ethyl)-2-(4-fluorophenyl)-4,5,6,7-tetrahydro-2H-pyrazolo[4,3-c]pyridine], the IC50 is 5e-08 to 2e-07 M.

For the compound `CC(c1ccc2c(c1)OCC2)N1CCc2c(cnn2Cc2ncccn2)C1` (racemic) [Example 21, 5-(1-(2,3-dihydrobenzofuran-6-yl)ethyl)-1-(pyrimidin-2-ylmethyl)-4,5,6,7-tetrahydro-1H-pyrazolo[4,3-c]pyridine], the IC50 fell in the range of 2e-07 to 1e-06 M.

On to `CC(c1ccc2c(c1)OCC2)N1CCc2nn(-c3ccccc3)cc2C1` (racemic) [Example 8, 5-(1-(2,3-dihydrobenzofuran-6-yl)ethyl)-2-phenyl-4,5,6,7-tetrahydro-2H-pyrazolo[4,3-c]pyridine], for which the IC50 was 5e-08 to 2e-07 M.

`CC(c1ccc2c(c1)OCC2)N1CCc2nn(-c3ccccc3)cc2C1` (single isomer, unassigned) [Example 13]: the IC50 lay within 5e-08 to 2e-07 M.

Take `CC(c1ccc2c(c1)OCC2)N1CCc2c(cnn2-c2ccc(F)cc2)C1` (racemic) [Example 5, 5-(1-(2,3-dihydrobenzofuran-6-yl)ethyl)-1-(4-fluorophenyl)-4,5,6,7-tetrahydro-1H-pyrazolo[4,3-c]pyridine]: the IC50 lay in the range of 5e-08 to 2e-07 M.

In the case of “5-(1-(2,3-dihydrobenzofuran-6-yl)ethyl)-1-(pyridin-2-yl)-4,5,6,7-tetrahydro-1H-pyrazolo[4,3-c]pyridine [Example 9]”, the IC50 was in the range of 5e-08 to 2e-07 M.

Take `CC(c1ccc2c(c1)OCO2)N1CCc2ccccc2C1` (racemic) [Example 2, 2-(1-(benzo[d][1,3]dioxol-5-yl)ethyl)-1,2,3,4-tetrahydroisoquinoline]: the IC50 was 2e-07 to 1e-06 M.

For `CC(c1ccc2c(c1)OCC2)N1CCc2nn(-c3ccccc3)cc2C1` (single isomer, unassigned) [Example 12], the IC50 fell in the range of 1e-06 to 1e-05 M.

As for `CC(c1ccc2c(c1)OCC2)N1CCc2nc(-c3ccc(F)cc3)sc2C1` (racemic) [Example 11, 5-(1-(2,3-dihydrobenzofuran-6-yl)ethyl)-2-(4-fluorophenyl)-4,5,6,7-tetrahydrothiazolo[5,4-c]pyridine], the IC50 lay within 2e-07 to 1e-06 M.

Consider `CC(c1ccc2c(c1)OCC2)N1CCc2c(cnn2-c2cncnc2)C1` (racemic) [Example 14, 5-(1-(2,3-dihydrobenzofuran-6-yl)ethyl)-1-(pyrimidin-5-yl)-4,5,6,7-tetrahydro-1H-pyrazolo[4,3-c]pyridine], for which the IC50 was 2e-07 to 1e-06 M.

For the compound `CC(=O)Nc1ncc2c(n1)CCN(C(C)c1ccc3c(c1)OCO3)C2` (racemic) [Example 1, N-(6-(1-(benzo[d][1,3]dioxol-5-yl)ethyl)-5,6,7,8-tetrahydropyrido[4,3-d]pyrimidin-2-yl)acetamide], the IC50 was 1e-06 to 1e-05 M.

With `CC(c1ccc2c(c1)OCC2)N1CCc2nn(Cc3ncccn3)cc2C1` (racemic) [Example 20, 5-(1-(2,3-dihydrobenzofuran-6-yl)ethyl)-2-(pyrimidin-2-ylmethyl)-4,5,6,7-tetrahydro-2H-pyrazolo[4,3-c]pyridine], the IC50 fell in the range of 2e-07 to 1e-06 M.

For the compound `CC(c1ccc2c(c1)OCC2)N1CCn2nc(-c3cccnc3)nc2C1` (racemic) [Example 18, 7-(1-(2,3-dihydrobenzofuran-6-yl)ethyl)-2-(pyridin-3-yl)-5,6,7,8-tetrahydro-[1,2,4]triazolo[1,5-a]pyrazine], the IC50 is 1e-06 to 1e-05 M.

For `CC(c1ccc2c(c1)OCC2)N1CCc2n[nH]cc2C1` (racemic) [Example 4, 5-(1-(2,3-dihydrobenzofuran-6-yl)ethyl)-4,5,6,7-tetrahydro-2H-pyrazolo[4,3-c]pyridine], the IC50 is 5e-08 to 2e-07 M.

Take `CC(c1ccc2c(c1)OCC2)N1CCc2c(cnn2-c2ccccc2)C1` (racemic) [Example 7, 5-(1-(2,3-dihydrobenzofuran-6-yl)ethyl)-1-phenyl-4,5,6,7-tetrahydro-1H-pyrazolo[4,3-c]pyridine]: the IC50 lay within 5e-08 to 2e-07 M.

As for “5-(1-(2,3-dihydrobenzofuran-6-yl)ethyl)-2-(pyridin-2-yl)-4,5,6,7-tetrahydro-2H-pyrazolo[4,3-c]pyridine [Example 10]”, the IC50 lay in the range of 5e-08 to 2e-07 M.

Consider `CC(c1ccc2c(c1)OCC2)N1CCc2nn(C3CCOCC3)cc2C1` (centres unmarked) [Example 15, 5-(1-(2,3-dihydrobenzofuran-6-yl)ethyl)-1-(tetrahydro-2H-pyran-4-yl)-4,5,6,7-tetrahydro-1H-pyrazolo[4,3-c]pyridine or 5-(1-(2,3-dihydrobenzofuran-6-yl)ethyl)-2-(tetrahydro-2H-pyran-4-yl)-4,5,6,7-tetrahydro-2H-pyrazolo[4,3-c]pyridine], for which the IC50 lay within 1e-06 to 1e-05 M.

Consider `CC(c1ccc2c(c1)OCC2)N1CCn2nc(Nc3ccc(C#N)cn3)nc2C1` (racemic) [Example 19, 6-((7-(1-(2,3-dihydrobenzofuran-6-yl)ethyl)-5,6,7,8-tetrahydro-[1,2,4]triazolo[1,5-a]pyrazin-2-yl)amino)nicotinonitrile], for which the IC50 fell in the range of 1e-06 to 1e-05 M.
